Measurements reported in patent publication US4055640A, “Compositions and methods for controlling the growth of bacteria, fungi and algae using certain derivatives of N-(2,2-dichlorovinyl)salicylamides” (Nippon Kayaku Co., Ltd., priority 1975, dated 1977).
Counter-ions that a name gives are not always drawn.

What was measured:
[1] = system: Rhizoctonia solani (damping-off of cucumber); experiment: Exterminating test on damping-off of cucumber (Experimental Example 3); type: in vivo; settings: Rhizoctonia solani, 240 h; 1,000 ppm, soil drench 50 ml per pot, 10 days; read-out: Percentage of healthy seedlings
Procedure, shortened: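 Pots of field soil infested with Rhizoctonia solani (5 g/pot), sown with 10 Azumamidori cucumber seeds, then drenched with 50 ml aqueous suspension of 80% wettable powder and kept in greenhouse. PCNB 50% wettable powder as control. Percentage of healthy seedlings scored 10 days after inoculation.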

[2] = system: cucumber (variety: Azumamidori); experiment: Phytotoxicity on cucumber (Experimental Example 3); type: in vivo; settings: 1,000 ppm
[3] = system: botrytis cinerea (gray mold); experiment: Exterminating test on gray mold of tomato (Experimental Example 5); type: in vivo; parameters: scale not given here; settings: 1,000 ppm, 48 hours after inoculation, kidney bean leaves
Description: Exterminating test on gray mold of tomato The seedlings of kidney beans (variety: Orient) of 5-6 leaves stage were employed in this test. Eighty percent (80%) wettable powder of the present invention was diluted with water and sprayed over the seedlings in an amount of 10 ml per pot. The leaves were cut from the plant at 24 hours after spraying, and placed in the petri dishes (12 cm in diameter). Thereafter disks (5 mm in diameter) were cut with a cork borer from potato dextrose agar on which the pathogen (botrytis cinerea) was cultured. The disks were placed on the leaves. The dishes were placed in such a moistural condition as to cause the pathogen to propagate. Thiophanate methyl 70% wettable powder on the market was used as a control and tested by the same method. After forty eight (48) hours after inoculation, diameters of the lesions were observed, and an "Effect Index" was calculated as follows; [formula]

[4] = system: seedlings of kidney beans (variety: Orient); experiment: Phytotoxicity on kidney beans (Experimental Example 5); type: in vivo; settings: 1,000 ppm
summer orange seedlings = experiment: Phytotoxicity on summer orange seedlings (Experimental Example 6); type: in vivo; settings: 1,000 ppm
Aspergillus niger = experiment: Minimum inhibitory amount, dilution methods (Example 24); type: cell-based; settings: (1) potato-dextrose agar dilution method
From the text: (§1) Bactericidal activity and fungicidal activity of the active compounds of the present invention were examined by potato-dextrose agar dilution method, or [2] glucose bouillon medium dilution method. The results are shown in Table 10 below as the minimum inhibitory concentration (the minimum concentration of active compound found to produce 100% control of the test bacteria and fungi).

Bacillus subtilis = experiment: as above; type: cell-based; settings: (2) glucose bouillon medium dilution method
From the text: as §1

Cladosporium harbarum = experiment: as above; type: cell-based; settings: (1) potato-dextrose agar dilution method
From the text: as §1

Escherichia coli = experiment: as above; type: cell-based; settings: (2) glucose bouillon medium dilution method
From the text: as §1

Penicillium Citrinum = experiment: as above; type: cell-based; settings: (1) potato-dextrose agar dilution method
From the text: as §1

Staphylococcus aureus = experiment: as above; type: cell-based; settings: (2) glucose bouillon medium dilution method
From the text: as §1

[5] = system: bacteria gathered from circular water system; experiment: Degree of propagation on slime test boards (Example 27); type: cell-based; settings: shaking culture for 2 days
Description: (§2) Zero point zero two (0.02) part of active compounds in the form of 10% water soluble concentrate which was prepared by Example 23 was added into 100 parts of Waxman's liquid medium. Peices of Wood iron (hereafter referred to as the slime test boards) were soaked into the Waxman's liquid medium. The bacteria which were gathered from circular water system were inoculated upon the Waxman's liquid medium and incubated at 27°-34° C by shaking culture for 2 days. The degree of propagation of the bacteria on the slime test boards was examined.
(§3) Thegrowth-inhibiting activity of active compounds against the fungi and the green algae was also examined by the same method as mentioned above.
(§4) The degree of propagation of the bacteria, fungi or green algae on the test boards is defined in terms of the following symbols.

fungi = experiment: as above; type: cell-based; settings: same method, shaking culture for 2 days
Description: as §2, §3, §4

green algae = experiment: as above; type: cell-based; settings: same method, shaking culture for 2 days
Description: as §2, §3, §4

[6] = system: Bacteria, fungi and slime; experiment: Inhibition of bacteria, fungi and slime in use (Example 23); settings: water soluble concentrate; 10-20 ppm in water, 0.01-0.1% in pastes
Description: Before application, the concentrate was diluted 500-1000 times with water and sprayed on the inside of cotes to prevent the growth of bacteria and fungi.
The solution was added to water in circular water systems to inhibit the growth of slime. The concentration of Compound No. 21 in the water was 10-20 ppm.
An amount of 0.01-0.1% of Compound No. 21 as the solution was added to pastes or binding agents to prevent rottenness of them.

Row | Compound | pest or weed control at 1000 ppm [1] [%] | Phytotoxicity [2] | Effect Index [3] | Phytotoxicity [4] | Phytotoxicity (summer orange seedlings) | Minimum inhibitory amount (Aspergillus niger) [µg/mL] | Minimum inhibitory amount (Bacillus subtilis) [µg/mL] | Minimum inhibitory amount (Cladosporium harbarum) [µg/mL] | Minimum inhibitory amount (Escherichia coli) [µg/mL] | Minimum inhibitory amount (Penicillium Citrinum) [µg/mL] | Minimum inhibitory amount (Staphylococcus aureus) [µg/mL] | Degree of propagation [5] | Degree of propagation (fungi) | Degree of propagation (green algae) | inhibition of bacteria, fungi and slime [6]
1 | O=[N+]([O-])c1c(Cl)c(Cl)c(Cl)c(Cl)c1Cl [PCNB, pentachloronitro benzene, reference compound] | 45 | Nil |  |  |  |  |  |  |  |  |  |  |  |  | 
2 | O=C(NC=C(Cl)Cl)c1cc(Cl)ccc1O [Compound No. 21, sodium salt of N-(2'-2'-dichlorovinyl)-5-chlorosalicylamide] |  |  | 80 | Nil | Nil | 10 | 2.5 | 5 | 40 | 5 | 2.5 | - | - | - | inhibited for a long time
